Measurements from US9574239B2, “MicroRNA signatures in human ovarian cancer” (The Ohio State University Research Foundation, priority 2007, dated 2017).

Assays:
Type in all cases: cell-based, human
[1] = system: OVCAR3 cells; assay: miR expression by microarray profiling of OVCAR3 cells before and after demethylating treatment; conditions: 10 μM, 24 h
Experimental: Total RNA isolation was performed with Trizol (Invitrogen, Carlsbad, Calif.) according to the manufacturer's instructions. RNA labeling and hybridization on microRNA microarray chips were performed as previously described (28) using 5 μg of total RNA from each sample. Hybridization was carried out on our microRNA microarray (Ohio State Comprehensive Cancer Center, version 2.0), which contains probes for 460 mature microRNAs spotted in quadruplicate (235 homo sapiens, 222 mus musculus, and three Arabidopsis thaliana) with annotated active sites. Often, more than one probe set exists for a given mature microRNA. Additionally, there are quadruplicate probes corresponding to most precursor microRNAs. Hybridization signals were detected with Streptavidin-Alexa647 conjugate and scanned images (Axon 4000B) were quantified using the Genepix 6.0 software (Axon Instruments, Sunnyvale, Calif.).
Microarray images were analyzed by using GENEPIX PRO. Average values of the replicate spots of each miRNA were background subtracted, normalized, and subjected to further analysis. We performed a global median normalization of Ovary microarray data by using BRB ArrayTools developed by Richard Simon & Amy Peng Lam (29). Absent calls were thresholded to 4.5 before subsequent statistical analysis. This level is the average minimum intensity level detected in the experiments. miRNA nomenclature was according to the Genome Browser (genome.ucsc.edu) and the miRNA database at Sanger Center (microrna.sanger.ac.uk/); in case of discrepancies the miRNA database was followed. Differentially expressed miRNAs were identified by using the t test procedure within significance analysis of microarrays (SAM), a method developed at Stanford University Labs based on recent paper of Tusher, Tibshirani and Chu (30).
OVCAR3 cells were seeded at low density 48 h before treatment with 10 μM 5′aza-2′deoxycytidine (5′-AZA, Sigma). After 24 h of treatment, cells were collected and total RNA was isolated using Trizol reagent (Invitrogen). 3 replicates for both untreated cells and AZA-treated cells were used to evaluate the miR expression by Microarray profiling. Differentially expressed microRNAs were identified by using univariate two-classes T-test with random variance model.

[2] = system: OVCAR3 cells; assay: Real-Time PCR of miR expression levels in OVCAR3 cells after demethylating treatment; conditions: OVCAR3, before vs after treatment; FIG. 5C
Experimental: Relative expression was calculated using the comparative Ct method.

[3] = system: OVCAR3 cells; assay: Northern blot of miR-21 in OVCAR3 cells after demethylating treatment; conditions: OVCAR3, before vs after treatment; FIG. 5D
Experimental: Northern blot analysis was performed as previously described. RNA samples (10 μg each) were run on 15% Polyacrylamide, 7M Urea Criterion pre-casted gels (Bio-Rad, Hercules, Calif.) and transferred onto Hybond-N+ membranes (Amersham, Piscataway, N.J.). The hybridization was performed at 370 C in ULTRAhyb-Oligo hybrization buffer (Ambion, Austin, Tex.) for 16 hours. Membranes were washed at 370 C, twice with 2×SSPE and 0.5% SDS. 5S RNA or EtBr gel staining were used to normalize 200 ng of each probe was end labeled with 100 μCi [gamma-32P]-ATP using the polynucleotide kinase (Roche). Blots were stripped in boiling 0.1% SDS for 10 minutes before re-hybridization. OVCAR3 cells were seeded at low density 48 h before treatment with 10 μM 5′aza-2′deoxycytidine (5′-AZA, Sigma). After 24 h of treatment, cells were collected and total RNA was isolated using Trizol reagent (Invitrogen).

[4] = OVCAR3, before vs after treatment, p<0.001

Compound: Nc1ncn([C@H]2C[C@H](O)[C@@H](CO)O2)c(=O)n1 [5-aza-2′-deoxycytidine]
- expression of miR-21, miR-203, miR-146b, miR-205, miR-30-5p and miR-30c ([1]; OVCAR3, before vs after treatment): most significant induced upon treatment
- human microRNAs differentially expressed (number) [1, 4]: 11
- human microRNAs down-modulated (number) [1, 4]: 2
- human microRNAs up-modulated (number) [1, 4]: 9
- levels of miR-21, miR-203 and miR-205 after demethylating treatment ([1]; OVCAR3 cells): significantly increased
- expression levels of the 5 most significantly induced miRs (Real-Time PCR) [2]: up-modulation
- miR-21 expression (Northern Blot, normalized with EtBr gel staining) [3]: up-modulation
